Entries after “also recorded” stand apart in the source; their conditions may differ.
Assays:
[1] = tested on: Dmd^mdx mice; experiment: Weights test of forelegs grip strength (grip score); format: in vivo, mouse
Description: FIG. 2: Performance on the weights test and calculation of grip score [Deacon, 2013] allowed a measure of forepaw grip strength was recorded following 9 weeks of treadmill exercise (12-15 m/min 3 times per week) and treatment. Six different subcutaneously delivered treatment groups (n=6/group) were evaluated—wild-type (WT) C57BL/10SnJ control mice plus five groups of Dmd^mdx (C57BL/10ScSn-Dmd^mdx/J) mice: vehicle (saline/Tween 20), A(1-7) 0.5 mg/kg/day, and Compound 7 at three doses (0.5, 1.0, and 2.0 mg/kg/day).
(§1) Effect of administration of a non-peptidic small molecule Mas agonist (“Mas agonist”), Compound 7, once daily by subcutaneous injection for 10 weeks in comparison with Angiotensin (1-7), a peptide shown in the literature to improve outcomes in mdx mice.
(§2) Test Articles: (1) Compound 7 in Tween in saline (0.5, 1 or 2 mg/kg/day); (2) A(1-7) in saline (0.5 mg/kg/day)
Methods: 10 weeks old male Dmd^mdx mice were exercised at 12-15 m/min for 30 min 3 times a week for 10 weeks. […]
If the mouse is unsuccessful at lifting a particular weight for 3 seconds in all 3 attempts then the weight lower than the current weight was recorded as the last successful weight lifted by the mouse. The number of seconds (0 or 1 or 2) was recorded for the highest weight the mouse can lift. […]

[2] = tested on: Dmd^mdx mice; experiment: Bone marrow mesenchymal stem cell (MSC) counts by CFU-F assay after treatment; format: in vivo, mouse; settings: subcutaneous, Compound 7 0.5, 1.0 and 2.0 mg/kg/day, A(1-7) 0.5 mg/kg, 9 weeks, femur marrow cultured 8 days, vs vehicle
Description: (§3) FIG. 3: Six different subcutaneously delivered treatment groups (n=6/group) were evaluated—wild-type (WT) C57BL/10SnJ control mice plus five groups of Dmd^mdx (C57BL/10ScSn-Dmd^mdx/J) mice: vehicle (saline/Tween 20), A(1-7) 0.5 mg/kg/day, and Compound 7 at three doses (0.5, 1.0, and 2.0 mg/kg/day). At necropsy, following 9 weeks of treadmill exercise (12-15 m/min 3 times per week) and treatment, bone marrow was collected from both femurs, cultured 8 days, and mesenchymal stem cell (MSC) counts were recorded.
(§4) Methods: 10 weeks old male Dmd^mdx mice were exercised at 12-15 m/min for 30 min 3 times a week for 10 weeks. The absence of dystrophin in Dmd^mdx mice produces a vastly different phenotype than dystrophin deficiency in humans does [De Luca et al., 2003]. […] In this study, 10 weeks of exercise during treatment was used. There were six different treatment groups—Wild Type plus five groups of Dmd^mdx mice: Vehicle, Compound 7 0.5 mg/kg/day, Compound 7 1 mg/kg/day, Compound 7 2.0 mg/kg/day, and 0.5 mg/kg/day Angiotensin (1-7).
Necropsy: At the conclusion of the 9-week observation period (19 weeks of age), all animals were euthanized, and tissue samples and bone marrow (below) were collected. The tissues collected were the diaphragm, gastrocnemius muscle, soleus muscle, tibialis anterior muscle, plantaris muscle and heart. […]

[3] = tested on: Dmd^mdx mice; experiment: Inverted grid test of grip strength (hang time) in treadmill-exercised mice; format: in vivo, mouse
Description: FIG. 1: Inverted Grid Test: Mouse hang times were recorded on an inverted grid test of grip strength following 8 weeks of treadmill exercise (12-15 m/min 3 times per week) and treatment. Six different subcutaneously delivered treatment groups (n=6/group) were evaluated—wild-type (WT) C57BL/10SnJ control mice plus five groups of Dmd^mdx (C57BL/10ScSn-Dmd^mdx/J) mice: vehicle (saline/Tween 20), A(1-7) 0.5 mg/kg/day, and Compound 7 at three doses (0.5, 1.0, and 2.0 mg/kg/day).
as §1, §2
as §4, with “(1-7). […]” for “(1-7).”

[4] = tested on: Dmd^mdx mice; experiment: Histological evaluation of H&E stained diaphragm; format: in vivo, mouse; settings: subcutaneous, Compound 7 0.5, 1.0, 2.0 mg/kg/day, A(1-7) 0.5 mg/kg/day, 9 weeks, 5 random 40× fields, vs saline
Description: as §3, with “4: Histological evaluation:” for “3:”, “diaphragms were collected, fixed for 2 days in foramalin, paraffin embedded, sectioned,” for “bone marrow was collected from both femurs, cultured 8 days,”, “H&E stained.” for “mesenchymal stem cell (MSC) counts were recorded.”
FIG. 5: Histological evaluation: H&E stained diaphragm section, prepared as described in FIG. 4, were analyzed by for degenerating and regenerating fibers as well as inflammation. For each animal (n=6 per treatment group) 5 random 40× fields were taken across the diaphragm section and analyzed. (A) Degenerating fibers were counted as deadened fibers co-localized with an open space. […] Compound 7 across the dosage was similar to Dmd^mdx mice treated with A(1-7). (B) The number of regenerating fibers per field were counted as healthy fibers appearing with basophilic staining. […] (C) Inflammation was quantified as loci of 10 or more inflammatory cells.
as §4
Necropsy: At the conclusion of the 9-week observation period (19 weeks of age), all animals were euthanized, and tissue samples and bone marrow (below) were collected. The tissues collected were the diaphragm, gastrocnemius muscle, soleus muscle, tibialis anterior muscle, plantaris muscle and heart. The gastrocnemius muscle, soleus muscle, tibialis anterior muscle, plantaris muscle from the left leg as well as the diaphragm and heart were fixed in formalin and stored in 70% EtOH for hematoxylin and eosin (H&E) staining.
Histological Evaluation of the Diaphragm: The diaphragm was embedded in paraffin, sectioned and stained by H & E (hematoxylin and eosin). The parameters were assessed include (1) the number of regenerating fibers as defined by basophilic fibers; (2) number of degenerating fibers and the number of inflammatory loci (clusters of 10 or more inflammatory cells). Five random 40× fields per diaphragm were evaluated.

[5] = tested on: mice chronically infused with AngII; settings: AngII/A(1-7) co-treatment vs AngII infusion alone; Cisternas et al., 2015; cited from earlier work
[6] = tested on: cardiac fibrogenesis and remodeling; settings: Iwata et al., 2005; Grobe et al., 2007; cited from earlier work
[7] = tested on: Dmd^mdx and Sgcd−/− mouse models of muscular dystrophy; settings: Dmd^mdx and Sgcd−/− mice; Acuña et al., 2014; Sabharwal et al., 2012; cited from earlier work

Row | Compound | weights test of grip strength, comparison with A(1-7) ([1]; Compound 7 0.5, 1 or 2 mg/kg/day vs A(1-7) 0.5 mg/kg/day) | muscle strength by the weights test of grip strength ([1]; once daily subcutaneous, treadmill exercise, summary of FIG. 2) | bone marrow MSC counts [2] | muscle strength by the inverted grid test ([3]; once daily subcutaneous, treadmill exercise, summary of FIG. 1) | hang time on the inverted grid test ([3]; subcutaneous 2.0 mg/kg/day, 8 weeks of treadmill exercise and treatment, vs vehicle treated Dmd^mdx, n=6/group, t-test) | inflammation: loci of 10 or more inflammatory cells in diaphragm [4] | number of degenerating fibers in diaphragm [4] | number of regenerating (basophilic) fibers per field in diaphragm [4] | gastrocnemius muscle fiber diameter [5] | performance on the weights test [5] | cardiac fibrogenesis and remodeling (interstitial myocardial fibrosis, myocyte hypertrophy) [6] | fibrosis [7] | measures of muscle strength [7] | oxidative stress [7]
1 | CCCCOC(=O)NS(=O)(=O)c1ccc(OC(F)(F)F)cc1-c1ccc(Cn2ccnc2)cn1 [Compound 7, butyl ((2-(5-((1H-imidazol-1-yl)methyl)pyridin-2-yl)-4-(trifluoromethoxy)phenyl)sulfonyl)carbamate] | superior to A(1-7) | increased muscle strength | increased bone marrow MSC counts | increased muscle strength | increase in hang time | significantly increased number of regenerating fibers | reduction in the number of degenerative fibers; also recorded: reduce degenerating fibers | significantly increased number of regenerating fibers |  |  |  |  |  | 
2 | Asp-Arg-Val-Tyr-Ile-His-Pro (DRVYIHP; printed: Asp-Arg-Val-Tyr-Ile-His-Pro) [A(1-7), endogenous Mas receptor heptapeptide ligand, purchased from BACHEM] |  |  | increased bone marrow MSC counts |  |  |  | reduction in the number of degenerative fibers |  | prevented a decrease in gastrocnemius muscle fiber diameter | increased | block cardiac fibrogenesis and remodeling | reduced fibrosis | improved measures of muscle strength | reduced

Reference: US9943509B2, “Methods, compounds, and compositions for the treatment of musculoskeletal diseases” (UNIVERSITY OF SOUTHERN CALIFORNIA, priority 2013, dated 2018)
